In patent US20150105252A1, “SUBSTITUTED PYRAZOLES AS HERBICIDES” (E I DU PONT DE NEMOURS AND COMPANY, priority 2013, published 2015):

How the values were obtained:
oilseed rape = experiment: Test C postemergence; assay type: in vivo, Brassica napus
Procedure, shortened: (§1)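 Seeds were sown in a loam soil–sand blend and sprayed preemergence with compounds formulated in a non-phytotoxic solvent mixture containing surfactant. Postemergence plants, grown in peat/vermiculite medium to 2–18 cm (1- to 4-leaf stage), received the same formulation. After 13 to 15 days in a greenhouse, injury was rated visually against controls (0 = no effect, 100 = complete control).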

crabgrass, large = experiment: Test C postemergence; assay type: in vivo, Digitaria sanguinalis
Procedure, shortened: as §1

galium = experiment: Test C postemergence; assay type: in vivo, Galium aparine
Procedure, shortened: as §1

lambsquarters [1] = experiment: Test C preemergence; assay type: in vivo, Chenopodium album
Procedure, shortened: as §1

waterhemp = experiment: Test C postemergence; assay type: in vivo, Amaranthus rudis
Procedure, shortened: as §1

kochia = experiment: Test C postemergence; assay type: in vivo, Kochia scoparia
Procedure, shortened: as §1

barnyardgrass = experiment: Test C postemergence; assay type: in vivo, Echinochloa crus-galli
Procedure, shortened: as §1

oat, wild = experiment: Test C postemergence; assay type: in vivo, Avena fatua
Procedure, shortened: as §1

morningglory = experiment: Test C postemergence; assay type: in vivo, Ipomoea coccinea
Procedure, shortened: as §1

blackgrass = experiment: Test C postemergence; assay type: in vivo, Alopecurus myosuroides
Procedure, shortened: as §1

ryegrass, Italian = experiment: Test C postemergence; assay type: in vivo, Lolium multiflorum
Procedure, shortened: as §1

lambsquarters [2] = experiment: Test C postemergence; assay type: in vivo, Chenopodium album
Procedure, shortened: as §1

foxtail, giant = experiment: Test C postemergence; assay type: in vivo, Setaria faberii
Procedure, shortened: as §1

velvetleaf = experiment: Test C postemergence; assay type: in vivo, Abutilon theophrasti
Procedure, shortened: as §1

nutsedge, yellow = experiment: Test C postemergence; assay type: in vivo, Cyperus esculentus
Procedure, shortened: as §1

[3] = Postemergence, 31 g ai/ha, visually evaluated after 13 to 15 days
[4] = postemergence, 62 g ai/ha, scale 0 to 100
[5] = postemergence, 250 g ai/ha, scale 0 to 100 (0 no effect, 100 complete control)
[6] = postemergence, 125 g ai/ha, scale 0 to 100, 0 no effect, 100 complete control

CCc1cc(C(=O)NC(C)C)nn1Cc1ccnc(C(F)(F)F)c1 [Compound 103]
Plant response rating (scale of 0 to 100 where 0 is no effect and 100 is complete control), Oilseed Rape (oilseed rape; [3]): 5
Oilseed Rape plant response rating (oilseed rape; [4]): 50
Plant response rating, Oilseed Rape (oilseed rape; [5]): 70
Plant response rating, Oilseed Rape (oilseed rape; [6]): 50
Plant response rating (scale of 0 to 100 where 0 is no effect and 100 is complete control), Crabgrass, Large (crabgrass, large; [3]): 10
Crabgrass, Large plant response rating (crabgrass, large; [4]): 15
Plant response rating, Crabgrass, Large (crabgrass, large; [5]): 85
Plant response rating, Crabgrass, Large (crabgrass, large; [6]): 35
Plant response rating (scale of 0 to 100 where 0 is no effect and 100 is complete control), Galium (galium; [3]): 50
Galium plant response rating (galium; [4]): 70
Plant response rating, Galium (galium; [5]): 80
Plant response rating, Galium (galium; [6]): 75
Plant response rating (scale of 0 to 100), Lambsquarters (lambsquarters [1]; Preemergence, 250 g ai/ha): 100
Lambsquarters plant response rating (lambsquarters [1]; preemergence, 31 g ai/ha, visual rating, scale 0 to 100 (0 no effect, 100 complete control), 13 to 15 days): 100
Plant response rating, Lambsquarters (lambsquarters [1]; preemergence, 62 g ai/ha, 13 to 15 days, scale 0 to 100, 0 = no effect, 100 = complete control): 100
Lambsquarters plant response rating (lambsquarters [1]; preemergence, 125 g ai/ha, scale 0 to 100, 0 is no effect, 100 is complete control): 100
Plant response rating (scale of 0 to 100 where 0 is no effect and 100 is complete control), Waterhemp (waterhemp; [3]): 55
Waterhemp plant response rating (waterhemp; [4]): 65
Plant response rating, Waterhemp (waterhemp; [5]): 90
Plant response rating, Waterhemp (waterhemp; [6]): 65
Plant response rating (scale of 0 to 100 where 0 is no effect and 100 is complete control), Kochia (kochia; [3]): 85
Kochia plant response rating (kochia; [4]): 85
Plant response rating, Kochia (kochia; [5]): 90
Plant response rating, Kochia (kochia; [6]): 85
Plant response rating (scale of 0 to 100 where 0 is no effect and 100 is complete control), Barnyardgrass (barnyardgrass; [3]): 10
Barnyardgrass plant response rating (barnyardgrass; [4]): 15
Plant response rating, Barnyardgrass (barnyardgrass; [5]): 95
Plant response rating, Barnyardgrass (barnyardgrass; [6]): 15
Plant response rating (scale of 0 to 100 where 0 is no effect and 100 is complete control), Oat, Wild (oat, wild; [3]): 5
Oat, Wild plant response rating (oat, wild; [4]): 5
Plant response rating, Oat, Wild (oat, wild; [5]): 50
Plant response rating, Oat, Wild (oat, wild; [6]): 50
Plant response rating (scale of 0 to 100 where 0 is no effect and 100 is complete control), Morningglory (morningglory; [3]): 75
Morningglory plant response rating (morningglory; [4]): 75
Plant response rating, Morningglory (morningglory; [5]): 100
Plant response rating, Morningglory (morningglory; [6]): 85
Plant response rating (scale of 0 to 100 where 0 is no effect and 100 is complete control), Blackgrass (blackgrass; [3]): 10
Blackgrass plant response rating (blackgrass; [4]): 15
Plant response rating, Blackgrass (blackgrass; [5]): 60
Plant response rating, Blackgrass (blackgrass; [6]): 40
Plant response rating (scale of 0 to 100 where 0 is no effect and 100 is complete control), Ryegrass, Italian (ryegrass, Italian; [3]): 5
Ryegrass, Italian plant response rating (ryegrass, Italian; [4]): 5
Plant response rating, Ryegrass, Italian (ryegrass, Italian; [5]): 45
Plant response rating, Ryegrass, Italian (ryegrass, Italian; [6]): 5
Plant response rating (scale of 0 to 100 where 0 is no effect and 100 is complete control), Lambsquarters (lambsquarters [2]; [3]): 65
Lambsquarters plant response rating (lambsquarters [2]; [4]): 70
Plant response rating, Lambsquarters (lambsquarters [2]; [5]): 90
Plant response rating, Lambsquarters (lambsquarters [2]; [6]): 75
Plant response rating (scale of 0 to 100 where 0 is no effect and 100 is complete control), Foxtail, Giant (foxtail, giant; [3]): 40
Foxtail, Giant plant response rating (foxtail, giant; [4]): 40
Plant response rating, Foxtail, Giant (foxtail, giant; [5]): 90
Plant response rating, Foxtail, Giant (foxtail, giant; [6]): 60
Plant response rating (scale of 0 to 100 where 0 is no effect and 100 is complete control), Velvetleaf (velvetleaf; [3]): 25
Velvetleaf plant response rating (velvetleaf; [4]): 40
Plant response rating, Velvetleaf (velvetleaf; [5]): 55
Plant response rating, Velvetleaf (velvetleaf; [6]): 45
Plant response rating (scale of 0 to 100 where 0 is no effect and 100 is complete control), Nutsedge, Yellow (nutsedge, yellow; [3]): 10
Nutsedge, Yellow plant response rating (nutsedge, yellow; [4]): 10
Plant response rating, Nutsedge, Yellow (nutsedge, yellow; [5]): 20
Plant response rating, Nutsedge, Yellow (nutsedge, yellow; [6]): 10
